Patent publication US20240327388A1, “QUINOLINAMINE COMPOUND, PREPARATION METHOD THEREFOR AND APPLICATION THEREOF IN PHARMACEUTICALS” (JIANGSU HENGRUI PHARMACEUTICALS CO., LTD., priority 2021, published 2024)
Where two headings read alike, the source gives them in different places.

How the values were obtained:
[1] = Pharmacokinetic study in rats (intragastric administration and intravenous injection, LC/MS/MS); assay type: in vivo, SD rats; conditions: rat; for Vd/F / AUC / CL/F / half-life / Cmax / MRT / Vd / clearance: both sexes, SD, plasma; for Vd/F: read-out: Apparent volume of distribution Vz/F; for AUC: read-out: Area under curve AUC; for CL/F: read-out: Clearance CL/F; for half-life: read-out: Half-life t½ (converted); for Cmax: read-out: Plasma concentration Cmax; for MRT: read-out: Residence time MRT; for Vd: read-out: Apparent volume of distribution Vz; for clearance: read-out: Clearance CL
Protocol: With rats as test animals, the plasma concentration of the compound of Example 2 and a comparative compound A (see compound (1) of Example 3 in WO2016135052A1) were determined by LC/MS/MS at different time points after intragastric administration and intravenous injection to the rats. The pharmacokinetic behavior in rats of the compound disclosed herein was studied and its pharmacokinetic profile was evaluated.
16 healthy adult SD rats (half male and half female, purchased from Vital River Laboratory Animal Technology Co., Ltd.) were evenly divided into 4 groups.
A certain amount of the compound was weighed out, and 5% of DMSO, 5% of Tween 80, and 90% of normal saline were added to give a colorless and clear solution.
Intragastric administration group: SD rats were fasted overnight, and then the compound was administered intragastrically to the rats at a dose of 2 mg/kg and a volume of 10.0 mL/kg.
Intravenous administration group: SD rats were fasted overnight, and then the compound was administered to the rats by intravenous injection at a dose of 1 mg/kg and a volume of 5.0 mL/kg.
Intragastric administration group: The compound of Example 2 and the comparative compound A were administered intragastrically to the rats, and 0.1 mL of blood was collected from the orbit before administration and 0.25 h, 0.5 h, 1.0 h, 2.0 h, 4.0 h, 6.0 h, 8.0 h, 11.0 h and 24.0 h after administration. The blood was placed in an EDTA-K2 anticoagulation tube and centrifuged at 10000 rpm for 1 min at 4° C. The plasma was separated within 1 h and stored at −20° C. before analysis. The process from blood collection to centrifugation was performed in an ice bath. Two hours after administration, feeding was resumed.
Intravenous administration group: The rats were injected intravenously with the compound of Example 2 and the comparative compound A, and the blood was collected before administration and 5 min, 15 min, 0.5 h, 1.0 h, 2.0 h, 4.0 h, 8.0 h, 11.0 h and 24.0 h after administration and treated in the same way as the blood of the intragastric administration group.
Determination of plasma concentrations in rats after intragastric administration and intravenous injection of the test compounds at different concentrations: 20 μL of rat plasma at each time point after administration was mixed with 50 μL of an internal standard solution (camptothecin, 100 ng/mL) and 200 μL of acetonitrile, and the mixture was vortexed for 5 min and centrifuged for 10 min at 3700-4000 rpm. 1.0-2.0 μL of supernatant of the plasma sample was taken for LC/MS/MS analysis.

[2] = test system: dextran sulfate sodium salt (DSS)-induced UC mice; test: Prophylactic and therapeutic effects on DSS-induced ulcerative colitis (UC) in mice; assay type: in vivo, female C57BL/6 mice; conditions: for efficacy on DSS-induced UC (conclusion in words): 50 mg/kg, body weight and colon length; for body weight decreasing rate / colon length, % of that of the normal control group: DSS-induced UC mice
Protocol: In the experiment, female C57BL/6 mice from Vital River were selected to establish an ulcerative colitis (UC) model induced by dextran sulfate sodium salt (DSS), and the prophylactic and therapeutic effects of a positive compound ABX-464 (see compound 90 in WO2015001518A1) and compound 1 disclosed herein on the DSS-induced ulcerative colitis were evaluated.
Female C57BL/6 mice for experiments, purchased from Vital River Laboratory Animal Technology Co., Ltd. (production license number: SCXK (Zhejiang) 2019-0001, animal certification number: 20210401Abzz0619000795), weighing 20-22 g at the time of purchase, were bred at 5 mice/cage in an independent SPF space (in 12/12-hour light/dark cycle, at a constant temperature of 23±1° C. and a humidity of 50%-60%) and given ad libitum access to food and water. After purchase, the animals were acclimatized for at least 1 week, and then the experiment began.
The mice were randomly divided by body weight into the following 5 groups: normal control group (Naïve group), model group (DSS group), ABX-464 (50 mg/kg, p.o., qd) group, ABX-464 (50 mg/kg, p.o., bid) group, and compound 1 disclosed herein (50 mg/kg, p.o., bid) group. After acclimatization, the mice were subjected to 2.5% DSS feeding from day 0. After 7 days of DSS feeding, the mice were fed normal water until day 10. The corresponding solvents and drugs were administered intragastrically for 10 consecutive days from day 0 to day 10, and the mice were observed daily for changes in body weight from day 0 to day 10. On day 10, the mice were weighed, and the colon length was measured.
The experimental data are expressed as mean±standard error (SEM). Statistical comparison was performed using Excel software t-test. The data of the model group and the data of the normal control group were analyzed and compared. #P<0.05 indicates a significant difference between the model group and the normal control group, ##P<0.01 indicates a highly significant difference between the model group and the normal control group, and ###P<0.001 indicates a very highly significant difference between the model group and the normal control group. *P<0.05 indicates a significant difference between the administration group and the model group, **P<0.01 indicates a highly significant difference between the administration group and the model group, and ***P<0.001 indicates a very highly significant difference between the administration group and the model group.

[3] = test system: miR-124; test: Up-regulation of miR-124 in CD3/CD28 antibody-activated T cells (SYBR green quantitative PCR); assay type: cell-based; conditions: T-cell, 72 h; activated human T cells, 1 μM compound, 3 days, relative to DMSO, U6 internal reference
Protocol: The effect of the compound on miR-124 expression levels was detected in CD3/CD28 antibody-activated T cells. After the activated T cells were treated with the compound, the total cellular RNA was extracted, the cDNA obtained from reverse transcription was used as a template, and quantification was performed by an SYBR green fluorescence quantitative PCR method using a specific miR-124 primer.
Isolation of T cells: Purchased human peripheral blood mononuclear cells (PBMCs) were counted, centrifuged, and washed once with a separation buffer (PBS, pH 7.4, containing 0.5% BSA and 2 mM EDTA), and the supernatant was discarded. The components were added in an amount of 40 μL of a buffer and 10 μL of pan T Cell Biotin-Antibody Cocktail per 1×10^7 cells, and the pellet was resuspended. The resulting suspension was mixed and incubated in a refrigerator at 4° C. for 5 min. After the incubation was completed, the components were added in an amount of 30 μL of a buffer and 20 μL of Pan T Cell MicroBeads Cocktail per 1×10^7 cells, and the resulting suspension was mixed and incubated in a refrigerator at 4° C. for 10 min. The separation column (LS column) was rinsed with 3 mL of a cell separation buffer in advance, loaded with the above cell suspension, and then repeatedly washed 3 times with 1 mL of the cell separation buffer. The effluent cell fluid was collected in a 15 mL centrifuge tube, thus giving the enriched T cells. The cells were counted and added at a density of 1×10^6 cells/mL to an RPMI1640 medium (complete medium) containing 10% FBS and 40) U/mL IL-2, and the resulting mixture was kept on ice for later use.
Activation of T cells: The corresponding Dynabead Human T-Activator CD3/CD28 for T Cell Expansion and Activation were added to a 1.5 mL centrifuge tube in an amount of 25 μL of the activated magnetic beads per 1×10^6 cells, which should be shaken on a shaker for about 30 s before aspiration. In the centrifuge tube, at a volume ratio of greater than 1:1, the activated magnetic beads were washed 3 times with a medium, and all the washing liquid was removed after the last washing. A complete medium with a volume equal to the starting volume was added to resuspend the activated magnetic beads. The washed activated magnetic beads were added to the cell resuspension, and the resulting mixture was well mixed. The cells were added to a six-well plate at 3 mL/well and incubated in a cell incubator at 37° C. with 5% CO2 for 2 days.
Compound treatment: A 20 mM compound stock solution was diluted to 200 μM with DMSO, and then diluted 4-fold to 50 μM (50)×) with a complete medium. The resulting mixture was well mixed for later use. 4-fold diluted DMSO (25% DMSO) was added to negative control wells. T cells were activated for two days and pipetted uniformly. The 1.5 mL centrifuge tube was mounted on a magnetic rack, and the activated magnetic beads were removed. The cell suspension was collected, and the cells were counted and then centrifuged at 300×g for 10 min to discard the supernatant. The cells were then resuspended to 1.02×10^6 cells/mL, and 980 μL of the cell suspension and 20 μL of the 50× compound were added to each 24-well plate, with the final concentration of the compound being 1 μM. The cells were placed in a cell incubator at 37° C. with 5% CO2 for another 3 days.
RNA extraction: T cells were collected by centrifugation at 1500 rpm for 3 min, washed once with PBS, and centrifuged again to discard the supernatant. The total cellular RNA was extracted using a microRNA extraction kit according to the package insert. 700 μL of a Trizol cell lysis buffer was added to the cell pellet, and the resulting mixture was pipetted uniformly and left at room temperature for 5 min. 140 μL of chloroform was added, and the resulting mixture was well mixed with shaking and left to stand at room temperature for 3 min. The chloroform-cell lysis buffer mixture was centrifuged at 12000×g and 4° C. for 15 min. […]

[4] = po, intragastric administration, 2 mg/kg

SMILES | Vd/F [1, 4] | AUC [1, 4] | CL/F [1, 4] | half-life [1, 4] | Cmax [1, 4] | MRT [1, 4] | Vd ([1]; intravenous injection, 1 mg/kg) | AUC ([1]; intravenous injection, 1 mg/kg) | clearance ([1]; intravenous injection, 1 mg/kg) | half-life ([1]; intravenous injection, 1 mg/kg) | MRT ([1]; intravenous injection, 1 mg/kg) | efficacy on DSS-induced UC (conclusion in words) [2] | body weight decreasing rate ([2]; day 10, 50 mg/kg p.o. bid) | colon length, % of that of the normal control group ([2]; day 10, 50 mg/kg p.o. bid) | body weight decreasing rate ([2]; day 10, 50 mg/kg p.o. qd) | colon length, % of that of the normal control group ([2]; day 10, 50 mg/kg p.o. qd) | fold induction at 1 µM [3] | pharmacokinetic profile (conclusion in words) ([1]; compared to comparative compound A)
O=C(O)[C@H]1O[C@@H](N(c2ccc(OC(F)(F)F)cc2)c2ccc3cccc(Cl)c3n2)[C@H](O)[C@@H](O)[C@@H]1O [A, reference compound] | 21.4 L/kg | 311 ng·h/mL | 95.7 mL/min/kg | 2.57 h | 105 ng/mL | 3.76 h | 0.151 L/kg | 11900 ng·h/mL | 1.45 mL/min/kg | 1.24 h | 1.17 h |  |  |  |  |  |  | 
FC(F)(F)Oc1ccc(Nc2ccc3cccc(Cl)c3n2)cc1 [ABX-464] |  |  |  |  |  |  |  |  |  |  |  | certain prophylactic and therapeutic effects on the DSS-induced UC | 10.3% | 89.3% | 14.1% | 85.5% |  | 
FC1(F)Oc2ccc(Nc3ccc4cccc(Cl)c4n3)cc2O1 [Compound 1, 8-Chloro-N-(2,2-difluorobenzo[d][1,3]dioxol-5-yl)quinolin-2-amine] |  |  |  |  |  |  |  |  |  |  |  | better efficacy in terms of body weight and colon length than the positive drug ABX-464 | 0.4% | 91.9% |  |  | 3.9 | 
O=C(O)[C@H]1O[C@@H](N(c2ccc3c(c2)OC(F)(F)O3)c2ccc3cccc(Cl)c3n2)[C@H](O)[C@@H](O)[C@@H]1O [Compound 2, (2S,3S,4S,5R,6R)-6-((8-Chloroquinolin-2-yl)(2,2-difluorobenzo[d][1,3]dioxol-5-yl)amino)-3,4,5-trihydroxytetrahydro-2H-pyran-2-carboxylic acid] | 6.18 L/kg | 1220 ng·h/mL | 28.7 mL/min/kg | 2.47 h | 242 ng/mL | 4.32 h | 0.178 L/kg | 23000 ng·h/mL | 0.781 mL/min/kg | 2.85 h | 2.1 h |  |  |  |  |  | 1.2 | good absorption profile and significant pharmacokinetic superiority as compared to the comparative compound A
